Reference: US20260022143A1, “Cyclic Peptide Inhibitors of IL-23” (JANSSEN PHARMACEUTICA NV, priority 2022, published 2026)
Where a name gives a salt, the structure may show the parent alone. Read-outs that look alike come from different tables or passages of the source. Positions of bridges follow the written chain, without caps; N, C: chain ends. Non-standard residues stand in square brackets, D forms with d. Residues, ends and D or L forms follow the SMILES beside them. *: point of attachment. Me3N+(CH2)2O(CH2)2O(CH2)2CO = C[N+](C)(C)CCOCCOCCC(=O)*; CH2CH2OCH2CH2OCH2CH2NMe3+ = C[N+](C)(C)CCOCCOCC*; Trp(7-Me) = Cc1cccc2c(C[C@H](N)C(=O)O)c[nH]c12; Hexanoyl(6-NMe3+) = C[N+](C)(C)CCCCCC(=O)*; 2Nal = N[C@@H](Cc1ccc2ccccc2c1)C(=O)O; AEF = NCCOc1ccc(C[C@H](N)C(=O)O)cc1; Piperazinyl(4-Me) = CN1CCN(*)CC1; 3Pal = N[C@@H](Cc1cccnc1)C(=O)O; Lys(Me) = CNCCCC[C@H](N)C(=O)O; Agb = N=C(N)NCC[C@H](N)C(=O)O; Pen = CC(C)(S)[C@H](N)C(=O)O; X37 = C[N+]1(C)CCN(CC*)CC1; X38 = C[N+](C)(C)CCCCCC*; Thp = NC1(C(=O)O)CCOCC1; X3 = C[N+](C)(C)CCCCC*; Tfa = O=C(C(F)(F)F)*; NHtBu = CC(C)(C)N*; Sar = CNCC(=O)O

How the values were obtained:
[1] = biological target: T1, IL-23R (Homo sapiens, UniProt Q5VWK5); assay: IL23R Reporter Assay; format: cell-based; settings: HEK293 cells containing IL-23R, IL-12RP1 and STAT-inducible firefly luciferase reporter; 10 ng/mL IL-23 (EC90); 5 h at 37° C.; read-out: IL23R Reporter Assay
T1 construct: host or cells: HEK293
T1 sequence (Q5VWK5 24-629): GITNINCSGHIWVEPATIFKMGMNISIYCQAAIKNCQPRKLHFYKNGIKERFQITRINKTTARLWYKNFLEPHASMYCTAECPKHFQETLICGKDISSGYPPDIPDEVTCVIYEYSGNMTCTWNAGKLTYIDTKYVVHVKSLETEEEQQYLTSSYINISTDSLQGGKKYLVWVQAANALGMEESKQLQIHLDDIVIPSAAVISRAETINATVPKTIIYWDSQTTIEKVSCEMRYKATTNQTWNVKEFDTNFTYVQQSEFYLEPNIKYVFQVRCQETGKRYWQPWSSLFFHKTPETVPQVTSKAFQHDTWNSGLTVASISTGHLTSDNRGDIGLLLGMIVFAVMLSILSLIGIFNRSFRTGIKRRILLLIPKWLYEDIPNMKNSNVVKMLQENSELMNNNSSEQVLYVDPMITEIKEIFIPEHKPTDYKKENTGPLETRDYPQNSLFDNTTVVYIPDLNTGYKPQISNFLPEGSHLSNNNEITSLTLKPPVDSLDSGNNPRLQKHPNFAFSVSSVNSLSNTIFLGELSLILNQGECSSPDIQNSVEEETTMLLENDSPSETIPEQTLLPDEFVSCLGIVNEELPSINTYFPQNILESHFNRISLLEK

[2] = Exposed Polar Surface Area (EPSA); format: physicochemical; settings: SFC on Chirex 3014 column, sample 1 mM DMSO stock
Outline: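 SFC retention on a Chirex 3014 (S-valine/(R)-1-(α-naphthyl)ethylamine) column at 35 °C, 4 mL/min, 14 MPa outlet, 5–60% methanol/20 mM ammonium formate gradient in CO2. Retention times converted to EPSA (Å²) via linear calibration with 8 standards; samples from 1 mM DMSO stock, run in duplicate.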

Compound	IC50 [1] [nM]	EPSA ([2]; read-out: EPSA) [A^2]	EPSA [2] [Å^2]
CC(=O)N(C)CCCC[C@@H]1NC(=O)[C@H](Cc2c[nH]c3c(C)cccc23)NC(=O)[C@H]([C@@H](C)O)NC(=O)[C@H](CC(=O)N(C)C)NC(=O)[C@@H](NC(=O)CCOCCOCC[N+](C)(C)C)C(C)(C)SSC(C)(C)[C@@H](C(=O)N[C@@H](Cc2ccc(OCCN3CC[N+](C)(C)CC3)cc2)C(=O)N[C@@H](Cc2ccc3ccccc3c2)C(=O)NC2(C(=O)N[C@@H](CCCCN(C)C(C)=O)C(=O)N[C@@H](CC(N)=O)C(=O)N[C@@H](Cc3cccnc3)C(=O)N(C)CC(=O)N(C)C)CCOCC2)NC1=O [compound 193, cPEG3aCO-Pen(3)-N(N(Me)2)-T-7MeW-K(NMeAc)-Pen(3)-4DMPzEF-2Nal-THP-K(NMeAc)-N-3Pya-Sar-CON(Me)2] ({Me3N+(CH2)2O(CH2)2O(CH2)2CO}-[Pen]D(NMe2)T[Trp(7-Me)][Lys(Me)](Ac)[Pen]Y(X37)[2Nal][Thp][Lys(Me)](Ac)N[3Pal][Sar]-NMe2; disulfide 1-6)	40	135	–
CC(=O)N(C)CCCC[C@H](NC(=O)C1(NC(=O)[C@H](Cc2ccc3ccccc3c2)NC(=O)[C@H](Cc2ccc(OCCCCC[N+](C)(C)C)cc2)NC(=O)[C@H]2NC(=O)[C@H](CCCCNC(=O)CCOCCOCC[N+](C)(C)C)NC(=O)[C@H](Cc3c[nH]c4c(C)cccc34)NC(=O)[C@H]([C@@H](C)O)NC(=O)[C@H](CC(=O)N(C)C)NC(=O)[C@@H](NC(=O)CCOCCOCC[N+](C)(C)C)C(C)(C)SSC2(C)C)CCOCC1)C(=O)N[C@@H](CC(N)=O)C(=O)N[C@@H](Cc1cccnc1)C(=O)N(C)CC(=O)N(C)C [compound 384, cPEG3aCO-Pen(3)-N(N(Me)2)-T-7MeW-K(cPEG3a)-Pen(3)-TMAPF-2Nal-THP-K(NMeAc)-N-3Pya-Sar-CON(Me)2] ({Me3N+(CH2)2O(CH2)2O(CH2)2CO}-[Pen]D(NMe2)T[Trp(7-Me)]K(Me3N+(CH2)2O(CH2)2O(CH2)2CO)[Pen]Y(X3)[2Nal][Thp][Lys(Me)](Ac)N[3Pal][Sar]-NMe2; disulfide 1-6)	1.4	157	–
CC(=O)NCCCC[C@@H]1NC(=O)[C@H](Cc2c[nH]c3c(C)cccc23)NC(=O)[C@H]([C@@H](C)O)NC(=O)[C@H](CC(N)=O)NC(=O)[C@@H](NC(=O)[C@@H](CCCCNC(=O)CCCCC[N+](C)(C)C)NC(C)=O)C(C)(C)SSC(C)(C)[C@@H](C(=O)N[C@@H](Cc2ccc(OCCN)cc2)C(=O)N[C@@H](Cc2ccc3ccccc3c2)C(=O)NC2(C(=O)N[C@@H](CCCCNC(C)=O)C(=O)N[C@@H](CC(N)=O)C(=O)N[C@@H](Cc3cccnc3)C(=O)N(C)CC(N)=O)CCOCC2)NC1=O [compound 87] (Ac-[dK](Hexanoyl(6-NMe3+))[Pen]NT[Trp(7-Me)]K(Ac)[Pen][AEF][2Nal][Thp]K(Ac)N[3Pal][Sar]-NH2; disulfide 2-7 (inferred))	4.2	159	–
CC(=O)NCCCC[C@@H]1NC(=O)[C@H](Cc2c[nH]c3c(C)cccc23)NC(=O)[C@H]([C@@H](C)O)NC(=O)[C@H](CC(N)=O)NC(=O)[C@@H](NC(C)=O)C(C)(C)SSC(C)(C)[C@@H](C(=O)N[C@@H](Cc2ccc(OCCCCC[N+](C)(C)C)cc2)C(=O)N[C@@H](Cc2ccc3ccccc3c2)C(=O)NC2(C(=O)N[C@@H](CCCCNC(=O)CCCCCc3ccc(I)cc3)C(=O)N[C@@H](CC(N)=O)C(=O)N[C@@H](Cc3cccnc3)C(=O)N(C)CC(N)=O)CCOCC2)NC1=O [compound 546, MeCO-Pen(3)-N-T-7MeW-K(Ac)-Pen(3)-TMAPF-2Nal-THP-K(IPB)-N-3Pya-Sar-CONH2]	7.2	168	–
CC(=O)NCCCC[C@@H]1NC(=O)[C@H](Cc2c[nH]c3c(C)cccc23)NC(=O)[C@H]([C@@H](C)O)NC(=O)[C@H](CC(N)=O)NC(=O)[C@@H](NC(=O)CCOCCOCC[N+](C)(C)C)C(C)(C)SSC(C)(C)[C@@H](C(=O)N[C@@H](Cc2ccc(OCCN)cc2)C(=O)N[C@@H](Cc2ccc3ccccc3c2)C(=O)NC2(C(=O)N[C@@H](CCC(=O)O)C(=O)N[C@@H](CC(N)=O)C(=O)N[C@@H](Cc3cncc(C)c3)C(=O)N(C)CC(N)=O)CCOCC2)NC1=O [compound 506, cPEG3aCO-Pen(3)-N-T-7MeW-K(Ac)-Pen(3)-AEF-2Nal-THP-E-N-5MePyridinAla-Sar-CONH2]	4.1	191	–
cPEG3aCO-k(PEG2PEG2gEC14)-Pen(3)-N(N(Me)2)-T-7MeW-K(NMeAc)-Pen(3)-TMAPF-2Nal-THP-K(NMeAc)-N-3Pya-Sar-CON(Me)2 [compound 379]	12	–	149.74
CC(=O)N(C)CCCC[C@@H]1NC(=O)[C@H](Cc2c[nH]c3c(C)cccc23)NC(=O)[C@H]([C@@H](C)O)NC(=O)[C@H](CC(=O)N(C)C)NC(=O)[C@@H](NC(=O)CCOCCOCC[N+](C)(C)C)C(C)(C)SSC(C)(C)[C@@H](C(=O)N[C@@H](Cc2ccc(OCCCCC[N+](C)(C)C)cc2)C(=O)N[C@@H](Cc2ccc3ccccc3c2)C(=O)NC2(C(=O)N[C@@H](CCC(=O)O)C(=O)N[C@@H](CC(N)=O)C(=O)N[C@@H](Cc3cccnc3)C(=O)N(C)CC(=O)N(C)C)CCOCC2)NC1=O [compound 165, cPEG3aCO-Pen(3)-N(N(Me)2)-T-7MeW-K(NMeAc)-Pen(3)-TMAPF-2Nal-THP-E-N-3Pya-Sar-CON(Me)2] ({Me3N+(CH2)2O(CH2)2O(CH2)2CO}-[Pen]D(NMe2)T[Trp(7-Me)][Lys(Me)](Ac)[Pen]Y(X3)[2Nal][Thp]EN[3Pal][Sar]-NMe2; disulfide 1-6)	4.3	151	–
CC(=O)N(C)CCCC[C@@H]1NC(=O)[C@H](Cc2c[nH]c3c(C)cccc23)NC(=O)[C@H]([C@@H](C)O)NC(=O)[C@H](CCNC(=N)N)NC(=O)[C@@H](NC(=O)CCOCCOCC[N+](C)(C)C)C(C)(C)SSC(C)(C)[C@@H](C(=O)N[C@@H](Cc2ccc(OCCOCCOCC[N+](C)(C)C)cc2)C(=O)N[C@@H](Cc2ccc3ccccc3c2)C(=O)NC2(C(=O)N[C@@H](CCCCN(C)C(C)=O)C(=O)N[C@@H](CC(N)=O)C(=O)N[C@@H](Cc3cccnc3)C(=O)N(C)CC(=O)N(C)C)CCOCC2)NC1=O [compound 411, cPEG3aCO-Pen(3)-Gab-T-7MeW-K(NMeAc)-Pen(3)-APEG3F-2Nal-THP-K(NMeAc)-N-3Pya-Sar-CON(Me)2] ({Me3N+(CH2)2O(CH2)2O(CH2)2CO}-[Pen][Agb]T[Trp(7-Me)][Lys(Me)](Ac)[Pen]Y(CH2CH2OCH2CH2OCH2CH2NMe3+)[2Nal][Thp][Lys(Me)](Ac)N[3Pal][Sar]-NMe2; disulfide 1-6 (inferred))	2.1	155	–
CC(=O)NCCCC[C@@H]1NC(=O)[C@H](Cc2c[nH]c3c(C)cccc23)NC(=O)[C@H]([C@@H](C)O)NC(=O)[C@H](CC(N)=O)NC(=O)[C@@H](NC(C)=O)C(C)(C)SSC(C)(C)[C@@H](C(=O)N[C@@H](Cc2ccc(OCCN)cc2)C(=O)N[C@@H](Cc2ccc3ccccc3c2)C(=O)NC2(C(=O)N[C@@H](CCC(=O)O)C(=O)N[C@@H](CC(N)=O)C(=O)N[C@@H](Cc3cccnc3)C(=O)N(C)CC(=O)N3CCN(C)CC3)CCOCC2)NC1=O [compound 114] (Ac-[Pen]NT[Trp(7-Me)]K(Ac)[Pen][AEF][2Nal][Thp]EN[3Pal][Sar]-{Piperazinyl(4-Me)}; disulfide 1-6 (inferred))	28	173	–
CC(=O)NCCCC[C@H](NC(=O)C1(NC(=O)[C@H](Cc2ccc3ccccc3c2)NC(=O)[C@H](Cc2ccc(OCCN)cc2)NC(=O)[C@H]2NC(=O)[C@H](CCC(=O)NC(C)(C)C)NC(=O)[C@H](Cc3c[nH]c4c(C)cccc34)NC(=O)[C@H]([C@@H](C)O)NC(=O)[C@H](CC(N)=O)NC(=O)[C@@H](NC(=O)C(F)(F)F)C(C)(C)SSC2(C)C)CCOCC1)C(=O)N[C@@H](CC(N)=O)C(=O)N[C@@H](Cc1cccnc1)C(=O)N(C)CC(N)=O [compound 60] (Tfa-[Pen]NT[Trp(7-Me)]E(NHtBu)[Pen][AEF][2Nal][Thp]K(Ac)N[3Pal][Sar]-NH2; disulfide 1-6 (inferred))	3.5	157	–
CC(=O)N(C)CCCC[C@@H]1NC(=O)[C@H](Cc2c[nH]c3c(C)cccc23)NC(=O)[C@H]([C@@H](C)O)NC(=O)[C@H](CC(=O)N(C)C)NC(=O)[C@@H](NC(=O)CCOCCOCC[N+](C)(C)C)C(C)(C)SSC(C)(C)[C@@H](C(=O)N[C@@H](Cc2ccc(OCCCCCC[N+](C)(C)C)cc2)C(=O)N[C@@H](Cc2ccc3ccccc3c2)C(=O)NC2(C(=O)N[C@@H](CCCCN(C)C(C)=O)C(=O)N[C@@H](CC(N)=O)C(=O)N[C@@H](Cc3cccnc3)C(=O)N(C)CC(=O)N(C)C)CCOCC2)NC1=O [compound 293, cPEG3aCO-Pen(3)-N(N(Me)2)-T-7MeW-K(NMeAc)-Pen(3)-TMA6F-2Nal-THP-K(NMeAc)-N-3Pya-Sar-CON(Me)2] ({Me3N+(CH2)2O(CH2)2O(CH2)2CO}-[Pen]D(NMe2)T[Trp(7-Me)][Lys(Me)](Ac)[Pen]Y(X38)[2Nal][Thp][Lys(Me)](Ac)N[3Pal][Sar]-NMe2; disulfide 1-6)	3.2	149	–
